Here are results for eight molecules from patent publication US4652566A, “Benzofuran derivatives, processes for preparing the same and antihypertensive agents containing the same” (Kaken Pharmaceutical Co., Ltd., priority 1984, dated 1987).

The target in series [1] is T1, α-adrenergic blockade (vas deferens specimen, contraction by noradrenalin) (Rattus norvegicus, UniProt P43140).
T1 construct: from tissue; host or cells: vas deferens of six-week-old male Wistar rat
T1 sequence (P43140 1-466): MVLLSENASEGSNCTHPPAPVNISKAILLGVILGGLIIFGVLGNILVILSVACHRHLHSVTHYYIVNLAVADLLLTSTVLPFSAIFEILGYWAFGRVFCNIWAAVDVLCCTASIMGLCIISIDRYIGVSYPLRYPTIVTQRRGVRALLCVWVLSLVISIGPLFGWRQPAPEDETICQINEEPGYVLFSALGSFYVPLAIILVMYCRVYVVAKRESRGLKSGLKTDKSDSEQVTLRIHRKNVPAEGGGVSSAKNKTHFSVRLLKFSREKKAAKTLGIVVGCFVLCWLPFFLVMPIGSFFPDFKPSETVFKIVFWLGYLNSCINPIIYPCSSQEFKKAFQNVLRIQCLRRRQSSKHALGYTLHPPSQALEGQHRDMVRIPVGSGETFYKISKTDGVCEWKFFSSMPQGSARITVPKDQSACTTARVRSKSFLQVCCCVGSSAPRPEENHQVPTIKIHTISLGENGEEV
The series is described as follows: α-Adrenergic blockade effect (contraction response by noradrenalin of vas deferens specimen, Magnus method). The conditions noted are these: for Kb: rat vas deferens, antagonism of noradrenalin contraction, pA2 = negative logarithm of antagonist dose shifting agonist curve two times, read-out: α-Adrenergic blockade effect, pA2 value (converted). Also noted: species or system Wister male rat.

Series [2] has as its target T2, calcium antagonism (thoracic aorta spiral specimen, contraction by calcium) (Cavia porcellus, UniProt O35505).
T2 construct: from tissue; host or cells: thoracic aorta spiral strip of male Hartley guinea pig
The series is described as follows: Calcium antagonistic effect (contraction response by calcium of spiral thoracic aorta specimen, Magnus method). Set-up: species or system Hartly male giunea pig. The conditions noted are these: guinea pig thoracic aorta; antagonism of calcium contraction; read-out: Calcium antagonistic effect, pA2 value (converted). Here is the method: [Calcium antagonistic effect]
Using a spiral blood vessel specimen taken from a thoracic aorta of Hartly male giunea pig weighed 400 to 600 g, a contraction response by calcium was measured as a dose-response curve according to Magnus method and the antagonistic activity for each test compound was indicated as above-mentioned pA2 value.

The nature of series [3]: Antihypertensive effect and effect on heart rate in spontaneously hypertensive rat (SHR). Type of series: in vivo. The conditions noted are these: po, single dose. The protocol: [Antihypertensive effect and effect on a heart rate on rat suffering from a spontaneously hypertensive rat (SHR)]
A blood pressure was measured under no anesthetic condition by means of an apparatus for recording a blood pressure of a tail artery and a heart rate (Riken Kaihatsu Co., Ltd.) (PS-802) and at the same time a heart rate was also measured.
Each of test compounds was dissolved or suspended in an aqueous solution containing 5% by weight of acasia and the obtained solution or suspension was administered once orally to SHR which had been kept under a fast condition for one night. A blood pressure and a heart rate were measured before administration and after one hour, three hours, five hours and seven hours of it and the maximum value of changes were calculated by comparing the value measured before administration with the value measured after administration.
For the purpose of a comparison, the same experiment as mentioned above was carried out on both Labetalol and Diltiazem as mentioned above.
With respect to a dosage, 100 mg/kg and 10 mg/kg as to compounds obtained by Examples 2, 5, 6, 9 and 18 to 23 were respectively administered, 100 mg/kg as to compounds obtained by Examples 1, 3, 4, 7 and 10 to 17 was respectively administered.

The nature of series [4]: Accute toxicity test (LD50 value). The conditions noted are these: mouse, in vivo; mice; single oral administration; deaths by seventh day; Litchfield-Wilcoxon. The protocol:
[Accute toxicity test (LD50 value)]
The experiment was carried out using six weeks old ddy male mice.
Each of test compounds was suspended in an aqueous solution containing 5% by weight of acasia and the suspension was administered compulsorily once orally with a gastric probe. Within six hours after the start of the administration, the behavior of tested mice were observed consecutively. Thereafter, the observation was made at an interval of twenty four hours during 7 days and an accumulative number of deaths seventh day since the start of the administration was measured.
LD50 value was calculated according to the Litchfield-Wilcoxon method.

Setting [5] is: 100 mg/kg, maximum over 1, 3, 5, 7 hours (Table 3).
[6] abbreviates: 10 mg/kg, maximum over 1, 3, 5, 7 hours (Table 2).
[7] abbreviates: 100 mg/kg, maximum over 1, 3, 5, 7 hours (Table 2).

Where a name gives a salt, the structure may show the parent alone.

T2 sequence (O35505 whole entry): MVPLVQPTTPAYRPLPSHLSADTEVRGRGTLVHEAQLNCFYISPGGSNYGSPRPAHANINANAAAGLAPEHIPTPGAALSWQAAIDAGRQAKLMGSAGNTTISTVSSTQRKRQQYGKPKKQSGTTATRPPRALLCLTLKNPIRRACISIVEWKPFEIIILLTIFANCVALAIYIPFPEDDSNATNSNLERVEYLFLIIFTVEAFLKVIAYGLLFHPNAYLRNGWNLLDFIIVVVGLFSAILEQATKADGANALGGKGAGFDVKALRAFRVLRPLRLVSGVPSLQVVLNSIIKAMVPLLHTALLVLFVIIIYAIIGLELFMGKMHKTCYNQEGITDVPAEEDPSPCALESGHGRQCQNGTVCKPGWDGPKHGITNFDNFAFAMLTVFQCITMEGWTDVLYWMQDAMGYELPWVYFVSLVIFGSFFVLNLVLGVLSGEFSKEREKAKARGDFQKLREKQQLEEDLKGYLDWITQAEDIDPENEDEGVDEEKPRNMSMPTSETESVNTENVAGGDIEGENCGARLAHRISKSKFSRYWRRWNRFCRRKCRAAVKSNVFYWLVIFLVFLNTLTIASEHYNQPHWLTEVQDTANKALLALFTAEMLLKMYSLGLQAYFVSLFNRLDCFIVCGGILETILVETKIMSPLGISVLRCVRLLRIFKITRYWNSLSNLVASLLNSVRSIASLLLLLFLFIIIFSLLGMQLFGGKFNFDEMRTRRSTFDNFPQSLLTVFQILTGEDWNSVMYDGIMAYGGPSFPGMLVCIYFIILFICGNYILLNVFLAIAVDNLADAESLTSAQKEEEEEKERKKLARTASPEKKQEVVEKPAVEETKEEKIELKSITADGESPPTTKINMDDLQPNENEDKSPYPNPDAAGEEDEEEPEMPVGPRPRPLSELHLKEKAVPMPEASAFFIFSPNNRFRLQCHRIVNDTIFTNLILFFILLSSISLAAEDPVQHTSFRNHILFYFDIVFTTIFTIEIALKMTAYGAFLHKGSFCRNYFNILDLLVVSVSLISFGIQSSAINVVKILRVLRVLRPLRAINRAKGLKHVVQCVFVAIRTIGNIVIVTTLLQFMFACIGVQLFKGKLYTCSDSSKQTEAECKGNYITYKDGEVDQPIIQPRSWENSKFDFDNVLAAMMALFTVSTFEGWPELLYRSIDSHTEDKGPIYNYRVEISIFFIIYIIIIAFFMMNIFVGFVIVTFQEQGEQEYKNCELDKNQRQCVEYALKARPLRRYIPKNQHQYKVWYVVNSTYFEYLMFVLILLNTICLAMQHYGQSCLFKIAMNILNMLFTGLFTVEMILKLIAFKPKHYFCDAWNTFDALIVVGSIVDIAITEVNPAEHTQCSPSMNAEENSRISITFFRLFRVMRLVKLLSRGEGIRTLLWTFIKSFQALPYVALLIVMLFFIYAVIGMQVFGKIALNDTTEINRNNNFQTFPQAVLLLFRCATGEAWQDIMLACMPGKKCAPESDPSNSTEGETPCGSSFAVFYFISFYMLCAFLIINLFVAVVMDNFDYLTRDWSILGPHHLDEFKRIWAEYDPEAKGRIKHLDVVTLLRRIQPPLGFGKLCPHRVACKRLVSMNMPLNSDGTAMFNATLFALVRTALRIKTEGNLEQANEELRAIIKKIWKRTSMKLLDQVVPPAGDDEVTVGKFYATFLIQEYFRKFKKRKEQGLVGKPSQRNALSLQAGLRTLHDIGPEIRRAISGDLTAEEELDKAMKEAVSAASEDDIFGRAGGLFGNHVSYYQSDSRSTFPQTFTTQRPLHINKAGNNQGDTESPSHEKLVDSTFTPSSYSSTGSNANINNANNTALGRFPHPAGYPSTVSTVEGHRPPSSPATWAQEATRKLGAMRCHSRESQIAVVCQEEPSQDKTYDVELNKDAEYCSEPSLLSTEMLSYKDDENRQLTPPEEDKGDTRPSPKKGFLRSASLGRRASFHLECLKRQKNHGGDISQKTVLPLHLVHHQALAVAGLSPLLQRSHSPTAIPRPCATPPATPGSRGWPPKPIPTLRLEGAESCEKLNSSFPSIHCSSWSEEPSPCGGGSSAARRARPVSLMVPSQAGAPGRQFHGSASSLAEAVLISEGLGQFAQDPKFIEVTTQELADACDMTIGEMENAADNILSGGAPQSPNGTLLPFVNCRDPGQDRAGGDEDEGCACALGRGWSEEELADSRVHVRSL

With `COc1ccccc1N1CCN(CC(O)COc2ccc3cc(C#N)oc3c2)CC1` (stereo not shown) [Ex. 17 (HCl salt), 2-cyano-6-{2-hydroxy-3-[4-(2-methoxyphenyl)piperazinyl]propoxy}benzofuran], the results for the Kb in series [1] and in series [2] were 204 nM and 115 nM, respectively. Moreover, the “Maximum value of change, heart rate” value in series [3] (setting [5]) is given as -154.5 ± 21.1 beats/min. Also, the “Maximum value of change, systolic pressure” value in series [3] (setting [5]) was -40.5 ± 6.6 mmHg. In addition, the LD50 at 168 h in series [4] came out at 900 mg/kg.

As for `Cc1ccccc1N1CCN(CC(O)COc2cccc3cc(C(N)=O)oc23)CC1` (stereo not shown) [Ex. 13, 2-carbamoyl-7-{2-hydroxy-3-[4-(2-methylphenyl)piperazinyl]propoxy}benzofuran], in series [1], the Kb was 240 nM. The Kb in series [2] was 1350 nM. In series [3] (setting [5]), the “Maximum value of change, heart rate” value is recorded as -80.0 ± 16.6 beats/min and the “Maximum value of change, systolic pressure” value is on record as -97.0 ± 9.8 mmHg. Further, the LD50 at 168 h in series [4] was > 1500 mg/kg.

`Cc1ccccc1N1CCN(CC(O)COc2cccc3cc(C(C)O)oc23)CC1` (stereo not shown) [Ex. 23, 2-(1-hydroxyethyl)-7-{2-hydroxy-3-[4-(2-methylphenyl)piperazinyl]propoxy}benzofuran]: the Kb in series [1] is 77.6 nM; in series [2], 589 nM. Further, the “Maximum value of change, heart rate” value in series [3] (setting [6]) is listed as -93.4 ± 17.6 beats/min; in series [3] (setting [7]), -131.4 ± 22.3 beats/min. Moreover, the “Maximum value of change, systolic pressure” value in series [3] (setting [6]) was -54.9 ± 9.4 mmHg; in series [3] (setting [7]) it was -73.1 ± 9.2 mmHg. The LD50 at 168 h in series [4] is > 1000 mg/kg.

Turning to `COc1ccccc1N1CCN(CC(O)COc2ccc3cc(C(C)=O)oc3c2)CC1` (stereo not shown) [Ex. 4 (HCl salt), 2-acetyl-6-{2-hydroxy-3-[4-(2-methoxyphenyl)piperazinyl]-propoxy}benzofuran], in series [1], the Kb is 22.4 nM. For the same molecule, the Kb in series [2] was 525 nM. In series [3] (setting [5]), the “Maximum value of change, heart rate” value was -172.5 ± 23.9 beats/min and the “Maximum value of change, systolic pressure” value is on record as -114.2 ± 1.7 mmHg. The LD50 at 168 h in series [4] is > 1000 mg/kg.

Consider `COc1ccccc1N1CCN(CC(O)COc2ccc3cc(C(N)=O)oc3c2)CC1` (stereo not shown) [Ex. 11, 2-carbamoyl-6-{2-hydroxy-3-[4-(2-methoxyphenyl)piperazinyl]propoxy}benzofuran], for which the Kb in series [1] was 57.5 nM. In series [2], the Kb is 158 nM. For the same molecule, in series [3] (setting [5]), the “Maximum value of change, heart rate” value is listed as -126.5 ± 27.3 beats/min and the “Maximum value of change, systolic pressure” value is on record as -78.8 ± 7.6 mmHg. For the same molecule, in series [4], the LD50 at 168 h is > 1500 mg/kg.

As to `CC(=O)c1cc2cccc(OCC(O)CN3CCN(c4ccccc4)CC3)c2o1` (stereo not shown) [Ex. 1 (HCl salt), 2-acetyl-7-[3-(4-phenylpiperazinyl)-2-hydroxypropoxy]benzofuran], the Kb in series [1] was 209 nM; in series [2] it was 2950 nM. Also, the “Maximum value of change, heart rate” value in series [3] (setting [5]) is -105.8 ± 3.4 beats/min. Moreover, the “Maximum value of change, systolic pressure” value in series [3] (setting [5]) is given as -74.6 ± 5.6 mmHg. In series [4], the LD50 at 168 h was > 1000 mg/kg.

On to `COc1ccccc1N1CCN(CC(O)COc2cccc3cc(C#N)oc23)CC1` (stereo not shown) [Ex. 16 (HCl salt), 2-cyano-7-{2-hydroxy-3-[4-(2-methoxyphenyl)piperazinyl]-propoxy} benzofuran], for which the Kb in series [1] is 42.7 nM. In addition, the Kb in series [2] was 513 nM. In series [3] (setting [5]), the “Maximum value of change, heart rate” value is given as -189.6 ± 26.8 beats/min and the “Maximum value of change, systolic pressure” value is on record as -13.3 ± 4.6 mmHg. In addition, in series [4], the LD50 at 168 h stood at 900 mg/kg.

Turning to `COc1ccccc1N1CCN(CC(O)COc2ccc3oc(C(N)=O)cc3c2)CC1` (stereo not shown) [Ex. 12], in series [1], the “α-Adrenergic blockade effect, relative ratio as compared with Phentolamine” value came to 1.6 and the Kb was 100 nM. For the same molecule, the Kb in series [2] is 1170 nM. Also, in series [3] (setting [5]), the “Maximum value of change, heart rate” value was -110.0 ± 20.0 beats/min and the “Maximum value of change, systolic pressure” value was -100.2 ± 3.9 mmHg. Also, the LD50 at 168 h in series [4] is > 1500 mg/kg.

The LD50 is the dose expected to kill half of the subjects tested. Read a low LD50 as a more toxic substance.
